In publication PMC10254531, “The Effects of 1-O-Acetylbritannilactone Isolated from Inula britannica Flowers on Human Neutrophil Elastase and Inflammation of RAW 264.7 Cells and Zebrafish Larvae” (Molecules, 2023):

Assays:
[1] = target: T1, human neutrophil elastase (HNE) (Homo sapiens, UniProt P08246); experiment: chromogenic enzyme assay with MeO-Suc-AAPV-pNA; Lineweaver-Burk and Dixon plots; format: biochemical
T1 construct: gene ELANE
T1 sequence (P08246 30-247): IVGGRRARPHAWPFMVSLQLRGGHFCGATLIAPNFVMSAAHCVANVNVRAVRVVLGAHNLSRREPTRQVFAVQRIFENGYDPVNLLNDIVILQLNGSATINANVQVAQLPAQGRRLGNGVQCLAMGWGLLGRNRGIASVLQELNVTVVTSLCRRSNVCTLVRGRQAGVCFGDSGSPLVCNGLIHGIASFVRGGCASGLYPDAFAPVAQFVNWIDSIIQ

[2] = target: T1, human neutrophil elastase (HNE); experiment: chromogenic enzyme assay with MeO-Suc-AAPV-pNA (positive control); format: biochemical

Row | SMILES | Ki [1] | IC50 [2]
1 | C=C1C(=O)O[C@@H]2CC(C)=C([C@@H](C)CCCOC(C)=O)[C@@H](O)[C@H]12 [ABL, 1-O-acetylbritannilactone] | 2.4 µM | 
2 | O=C(O[C@@H]1Cc2c(O)cc(O)cc2O[C@@H]1c1cc(O)c(O)c(O)c1)c1cc(O)c(O)c(O)c1 [epigallocatechin gallate] |  | 7.2 ± 0.5 µM
